# From patent US20080319000A1, “Use of 3,1IB-Cis-Dihydrotetrabenazine for the Treatment of Symptoms of Huntingtons Disease” (CAMBRIDGE LABORATORIES (IRELAND) LIMITED, priority 2005, published 2008)
# Tested on: B6CBA-Tg(HDexon1)62Gpb/1J transgenic (R6/2) mice
# Experiment: Simplified Irwin test in transgenic mice model of Huntington's disease
# Format: in vivo
# Protocol: B6CBA-Tg(HDexon1)62Gpb/1J transgenic (R6/2) mice are transgenic for the 5-end of the human HD gene carrying (CAG) 115-(CAG) 150 repeat expansions. […] These symptoms appear between 6 and 8 weeks of age. […] Female B6CBa-Tg(HDexon1)62Gpb/1J transgenic mice (Jackson Laboratory, USA) were housed 5 per cage in an enriched environment under a light-dark cycle of 12 h-12 h (light on at 7.00 am, off at 7.00 pm) at a room temperature of 21±2° C., with 50±15% humidity. The mice had access to commercial mouse chow (mouse/rate breeding, ref. 9341 Provimi Kliba, Switzerland) and tap water. […] Two hours before the observations, animals were placed in individual cages. Measurements were first carried out in the individual cages. The animal's convulsions, tremors-twitches, stereotypies and vocalizations were recorded. The animal was then placed in a 58.5×68.5 cm open field with a 6 cm rim and observed for approximately 3 minutes. Gait characteristics were ranked. The presence of convulsions or tremors-twitches and stereotypies was again noted. At the end of the 3 minutes, the number of faecal boluses and pools of urine was recorded. The mice were then returned to their individual cages after testing. Group 1: hemizygote Transgenic B6CBA-Tg(HDexon 1)62Gpb/1J mice treated with vehicle i.p. once a day for 4 days (from day 0 to day 3) Group 2: hemizygote Transgenic B6CBA-Tg(HDexon 1)62Gpb/1J mice treated with 5 mg/kg i.p. of test item once a day for 4 days (from day 0 to day 3) […] • Test item administration • Simplified Irwin test, 40 minutes after administration • Rotarod test, immediately after the simplified Irwin test • Test item administration • Simplified Irwin test, 40 min after administration • Rotarod test, immediately after simplified #Irwin test • Test item administration • Simplified Irwin test, 40 min after administration • Locomotor activity test, immediately after the simplified Irwin test Simplified Irwin scores were analysed using non-parametric Mann-Whitney's U test. Locomotor activity data were analysed using Dunnett's t-test. Rotarod scores were analysed using the non-parametric Mann-Whitney's U-test. Statistical analyses were performed using the software Statview SE^+graphics software, Brain Power.
# [1] = home cage, Day 0 after administration, 5 mg/kg i.p. once a day Day 0-3
# [2] = home cage, Day 0 before administration, 5 mg/kg i.p. once a day Day 0-3
# [3] = home cage, Day 1, 5 mg/kg i.p. once a day Day 0-3
# [4] = home cage, Day 2, 5 mg/kg i.p. once a day Day 0-3
# [5] = home cage, Day 3, 5 mg/kg i.p. once a day Day 0-3
# [6] = open field, Day 0 after administration, 5 mg/kg i.p. once a day Day 0-3
# [7] = open field, Day 0 before administration, 5 mg/kg i.p. once a day Day 0-3
# [8] = open field, Day 1, 5 mg/kg i.p. once a day Day 0-3
# [9] = open field, Day 2, 5 mg/kg i.p. once a day Day 0-3
# [10] = open field, Day 3, 5 mg/kg i.p. once a day Day 0-3
# [11] = open field, Day 17, 5 mg/kg i.p. once a day Day 0-3
# [12] = open field, Day 21, 5 mg/kg i.p. once a day Day 0-3
# [13] = open field, Day 24, 5 mg/kg i.p. once a day Day 0-3
# [14] = open field, Day 27, 5 mg/kg i.p. once a day Day 0-3
# [15] = open field, Day 31, 5 mg/kg i.p. once a day Day 0-3
# [16] = period of 17 to 24 days after administration
smiles,measurement,setting,value
"COc1cc2c(cc1OC)[C@H]1C[C@H](O)[C@@H](CC(C)C)CN1CC2 (single isomer, unassigned) [Isomer B]","incidences of involuntary movements such as involuntary chorea, tremors and twitches",after 21 days versus prior to administration,no worse after 21 days than they had been prior to administration
same,Convulsions,[1],0.13
same,Grooming,[1],7.38 s
same,Stereotypies,[1],— (Sign never observed (equivalent to 0.00 ± 0.00))
same,Tremors-Twitches,[1],1.13
same,Vocalization,[1],— (Sign never observed (equivalent to 0.00 ± 0.00))
same,Convulsions,[2],0.22
same,Grooming,[2],10.00 s
same,Stereotypies,[2],— (Sign never observed (equivalent to 0.00 ± 0.00))
same,Tremors-Twitches,[2],1.44
same,Vocalization,[2],— (Sign never observed (equivalent to 0.00 ± 0.00))
same,Convulsions,[3],— (Sign never observed (equivalent to 0.00 ± 0.00))
same,Grooming (sec),[3],— (Sign never observed (equivalent to 0.00 ± 0.00))
same,Stereotypies,[3],— (Sign never observed (equivalent to 0.00 ± 0.00))
same,Tremors-Twitches,[3],1.00
same,Vocalization,[3],— (Sign never observed (equivalent to 0.00 ± 0.00))
same,Convulsions,[4],— (Sign never observed (equivalent to 0.00 ± 0.00))
same,Grooming,[4],7.78 s
same,Stereotypies,[4],— (Sign never observed (equivalent to 0.00 ± 0.00))
same,Tremors-Twitches,[4],0.78
same,Vocalization,[4],— (Sign never observed (equivalent to 0.00 ± 0.00))
same,Convulsions,[5],0.11
same,Grooming,[5],4.22 s
same,Stereotypies,[5],— (Sign never observed (equivalent to 0.00 ± 0.00))
same,Tremors-Twitches,[5],1.00
same,Vocalization,[5],— (Sign never observed (equivalent to 0.00 ± 0.00))
same,Convulsions,[6],0.67
same,Defecation (N° of boluses),[6],1.44 N° of boluses
same,Gait,[6],0.33
same,Grooming,[6],3.11 s
same,Stereotypies,[6],0.11
same,Tremors-Twitches,[6],1.89
same,Urination (N° of pools),[6],0.44 N° of pools
same,Vocalisation,[6],0.22
same,Convulsions,[7],— (Sign never observed (equivalent to 0.00 ± 0.00))
same,Defecation (N° of boluses),[7],2.56 N° of boluses
same,Gait,[7],1.11
same,Grooming,[7],19.44 s
same,Stereotypies,[7],— (Sign never observed (equivalent to 0.00 ± 0.00))
same,Tremors-Twitches,[7],2.11
same,Urination (N° of pools),[7],0.67 N° of pools
same,Vocalisation,[7],0.44
same,Convulsions,[8],0.11
same,Defecation (N° of boluses),[8],0.89 N° of boluses
same,Gait,[8],1.00
same,Grooming,[8],7.78 s
same,Stereotypies,[8],— (Sign never observed (equivalent to 0.00 ± 0.00))
same,Tremors-Twitches,[8],2.33
same,Urination (N° of pools),[8],0.11 N° of pools
same,Vocalisation,[8],0.67
same,Convulsions,[9],— (Sign never observed (equivalent to 0.00 ± 0.00))
same,Defecation (N° of boluses),[9],1.22 N° of boluses
same,Gait,[9],0.67
same,Grooming,[9],20.56 s
same,Stereotypies,[9],— (Sign never observed (equivalent to 0.00 ± 0.00))
same,Tremors-Twitches,[9],2.00
same,Urination (N° of pools),[9],0.33 N° of pools
same,Vocalisation,[9],0.89
same,Convulsions,[10],— (Sign never observed (equivalent to 0.00 ± 0.00))
same,Defecation (N° of boluses),[10],1.33 N° of boluses
same,Gait,[10],2.33
same,Grooming,[10],12.67 s
same,Stereotypies,[10],— (Sign never observed (equivalent to 0.00 ± 0.00))
same,Tremors-Twitches,[10],1.78
same,Urination (N° of pools),[10],0.11 N° of pools
same,Vocalisation,[10],0.89
same,Convulsions,[11],0.67
same,Defecation (N° of boluses),[11],2.67 N° of boluses
same,Gait,[11],1.56
same,Grooming,[11],20.33 s
same,Stereotypies,[11],— (Sign never observed (equivalent to 0.00 ± 0.00))
same,Tremors-Twitches,[11],1.44
same,Urination (N° of pools),[11],0.22 N° of pools
same,Vocalisation,[11],0.22
same,Convulsions,[12],— (Sign never observed (equivalent to 0.00 ± 0.00))
same,Defecation (N° of boluses),[12],2.44 N° of boluses
same,Gait,[12],1.67
same,Grooming,[12],17.67 s
same,Stereotypies,[12],— (Sign never observed (equivalent to 0.00 ± 0.00))
same,Tremors-Twitches,[12],1.67
same,Urination (N° of pools),[12],0.11 N° of pools
same,Vocalisation,[12],0.44
same,Convulsions,[13],— (Sign never observed (equivalent to 0.00 ± 0.00))
same,Defecation (N° of boluses),[13],1.33 N° of boluses
same,Gait,[13],2.17
same,Grooming,[13],18.22 s
same,Stereotypies,[13],— (Sign never observed (equivalent to 0.00 ± 0.00))
same,Tremors-Twitches,[13],2.44
same,Urination (N° of pools),[13],0.33 N° of pools
same,Vocalisation,[13],0.44
same,Convulsions,[14],— (Sign never observed (equivalent to 0.00 ± 0.00))
same,Defecation (N° of boluses),[14],2.33 N° of boluses
same,Gait,[14],2.56
same,Grooming,[14],25.33 s
same,Stereotypies,[14],— (Sign never observed (equivalent to 0.00 ± 0.00))
same,Tremors-Twitches,[14],2.11
same,Urination (N° of pools),[14],0.44 N° of pools
same,Vocalisation,[14],0.00
same,Convulsions,[15],— (Sign never observed (equivalent to 0.00 ± 0.00))
same,Defecation (N° of boluses),[15],1.44 N° of boluses
same,Gait,[15],2.33
same,Grooming,[15],19.11 s
same,Stereotypies,[15],— (Sign never observed (equivalent to 0.00 ± 0.00))
same,Tremors-Twitches,[15],2.67
same,Urination (N° of pools),[15],0.11 N° of pools
same,Vocalisation,[15],0.22
same,deterioration (progression of symptoms) versus control mice,[16],significantly less deterioration than the control mice
same,deterioration in gait,[16],substantially arrested or slowed
same,"progression of symptoms of Huntington's disease (involuntary movements, deterioration in gait)",transgenic mouse model of Huntington's disease,shown to arrest the progression of a number of symptoms of Huntington's disease
